Values quoted from earlier work, collected in US20080131525A1, “Therapeutic Nutrient Compositions Or Combinations And Methods Of Their Use” (priority 2004, published 2008).
Residues, ends and D or L forms follow the SMILES beside them.

Conditions: human, in vivo

dipeptide in plasma after the end of infusion: no longer detectable in plasma
dipeptide in urine: no ala-gln was detected in urine
half-life: 2.4 to 3.8 min
plasma clearance rate: 1.92 L/min
dipeptide in plasma over the infusion period (24 mg/kg): only trace quantities
hydrolysis after intravenous infusion (iv): rapidly hydrolysed
SMILES: C[C@H](N)C(=O)N[C@@H](CCC(N)=O)C(=O)O [ala-gln, N(2)-L-alanyl-L-glutamine] (H-Ala-Gln-OH)
calculated distribution volume: equivalent to that of the extracellular compartment
tolerability (iv): well tolerated
